Results reported in BindingDB's records for doi:10.1074/jbc.M114.559062 (Case Western Reserve University School of Medicine, 2014).

Assays:
[1] = target: T1, Fatty acid-binding protein 5 (Mus musculus, UniProt Q05816); assay: Fluorescence Competition Assay
T1 sequence (Q05816 whole entry): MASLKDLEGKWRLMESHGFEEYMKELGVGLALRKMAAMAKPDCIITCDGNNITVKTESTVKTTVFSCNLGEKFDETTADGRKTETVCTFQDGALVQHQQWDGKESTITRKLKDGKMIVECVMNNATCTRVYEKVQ
Procedure: (§1) The method entails two steps [Lin et al., Biochemistry, 38:185-190]. In the first step, the Kd for association of FABP5 with the fluorescent lipid probe anilinonaphtalene-8-sulfonic acid (ANS) was measured by fluorescence titrations. Kd values for nonfluorescent ligands were then measured by monitoring their ability to compete with the probe for binding. FABP5 was precomplexed with ANS and titrated with ligands. Ligand binding was followed by monitoring the decrease in fluorescence upon displacement of the probe from the protein.

[2] = target: T2, Fatty acid-binding protein 5-ANS (Mus musculus, UniProt Q05816); assay: Fluorescence Competition Assay
T2 sequence (Q05816 whole entry): T1 sequence (Q05816 whole entry)
Procedure: as §1

Row | Kd [1] [µM] | SMILES | Kd [2] [µM]
1 | 0.07 | O=S(=O)(O)c1cccc2cccc(Nc3ccccc3)c12 [ANS] | –
2 | – | CCCCC/C=C\C/C=C\C/C=C\C/C=C\CCCC(=O)NCCO [Arachidonoyl ethanolamide] | 0.1
3 | – | CCCCC/C=C\C/C=C\C/C=C\C/C=C\CCCC(=O)O [[1-14C]Arachidonic acid] | 0.0421
